Experimental data taken from PMC6562427, “A New Tyrosinase Inhibitor from the Red Alga Symphyocladia latiuscula (Harvey) Yamada (Rhodomelaceae)” (Marine Drugs, 2019).
Read-outs that look alike come from different tables or passages of the source.

Assays:
[1] = molecular target: T1, tyrosinase in α-MSH-induced B16F10 melanoma cells (Mus musculus, UniProt P11344); test: Cellular tyrosinase assay (L-DOPA oxidation); type: cell-based; settings: 5 µM α-MSH 48 h; for intracellular tyrosinase level: α-MSH alone 215.73%; for effect on intracellular tyrosinase activity: 6.25, 12.5 and 25 µM
T1 construct: the supernatant was used as cellular tyrosinase solution; endogenous in cells; host or cells: B16F10 melanoma cells, α-MSH stimulated
T1 sequence (P11344 19-533): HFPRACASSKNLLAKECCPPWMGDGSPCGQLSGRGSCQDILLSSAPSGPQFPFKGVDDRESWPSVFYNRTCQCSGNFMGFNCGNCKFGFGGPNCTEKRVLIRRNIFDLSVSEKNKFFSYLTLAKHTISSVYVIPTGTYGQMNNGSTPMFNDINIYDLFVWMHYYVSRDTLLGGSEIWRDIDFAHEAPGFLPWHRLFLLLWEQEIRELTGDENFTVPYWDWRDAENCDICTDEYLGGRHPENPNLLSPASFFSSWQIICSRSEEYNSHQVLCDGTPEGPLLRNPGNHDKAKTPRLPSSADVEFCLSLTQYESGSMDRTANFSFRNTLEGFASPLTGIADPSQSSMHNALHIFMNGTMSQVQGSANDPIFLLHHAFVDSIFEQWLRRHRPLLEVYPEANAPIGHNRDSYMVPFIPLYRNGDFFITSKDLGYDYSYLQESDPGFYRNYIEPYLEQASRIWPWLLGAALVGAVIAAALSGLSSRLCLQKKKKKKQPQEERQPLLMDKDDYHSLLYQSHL
Experimental: Intracellular tyrosinase inhibitory activity was evaluated by measuring the rate of oxidation of L-DOPA [57]. […] The cells were washed with PBS and lysed with a radio immunoprecipitation assay buffer. The cell lysates were kept in a deep freezer (−80 °C) for 1 h. After defrosting the cell lysates, the cellular extracts were purified by centrifugation at 14,000 rpm for 20 min at 4 °C, and the supernatant was used as cellular tyrosinase solution. A total of 80 µL of supernatant and 20 µL of L-DOPA (2 mg/mL) were added to a 96-well plate and incubated at 37 °C for 45 min. Dopachrome formation was then measured spectrophotometrically at 450 nm using a microplate spectrophotometer (Molecular Devices). Intracellular tyrosinase activity was calculated as the percentage of control.

[2] = tested on: tyrosinase protein expression in α-MSH-stimulated B16F10 cells; test: Tyrosinase protein levels via western blotting; type: cell-based, mouse
Experimental: The cell suspensions were centrifuged at 16,000 × g for 5 min, and the cell pellets were lysed in a lysis buffer and incubated on ice for 10 min. The cell lysates were centrifuged at 16,000 × g for 10 min, and the supernatant (total protein) was normalized using a Bradford protein assay kit. Aliquots of protein were resolved by sodium dodecyl sulfate-polyacrylamide gel electrophoresis and transferred onto a nitrocellulose membrane. The membrane was blocked with 10% nonfat milk (w/v) in tris-buffered saline with tween (TBST) (0.1 M Tris-HCl, pH 7.5, 1.5 M NaCl, 1% Tween20) for 2 h and incubated for approximately 24 h with TYR primary antibody. The immunoblots were then incubated with appropriate secondary antibodies for 2 h and detected using an enhanced chemiluminescence detection kit.

[3] = tested on: B16F10 melanoma cells; test: Melanin content assay in α-MSH-stimulated cells; type: cell-based, mouse; settings: for melanin content: α-MSH alone 151.72%; for effect on melanin content: 6.25, 12.5 and 25 µM
Experimental: Intracellular melanin content was determined according to a previously reported procedure with minor modifications. Briefly, B16F10 cells were seeded in a 24-well plate at 2 × 10,000 cells/well and incubated for 24 h in DMEM containing 10% FBS. Cells were pretreated with 6.25, 12.5, and 25 μM test compounds for 1 h and stimulated with 5 μM α-MSH for 48 h. […] The cells were washed with PBS and dissolved in 1 N NaOH containing 10% DMSO by boiling at 80 °C for 30 min. The cell lysates were centrifuged at 14,000 rpm for 20 min, and absorbance of the supernatant was measured at 405 nm. Melanin content was determined by normalizing the absorbance with total protein content.

[4] = molecular target: T2, mushroom tyrosinase (Agaricus bisporus, UniProt C7FF04); test: Mushroom tyrosinase inhibitory assay (spectrophotometric); type: biochemical; settings: mean ± SD, n = 3
T2 construct: purchased Sigma Aldrich
Experimental: The inhibitory activity of mushroom tyrosinase was carried out using a spectrophotometric method described in [27] with slight modifications. […] Then, 20 µL of tyrosinase was added and incubated at room temperature for between 10 and 30 minutes. Absorbance was measured at 490 nm after incubation.

[5] = Cell viability, MTT assay; type: cell-based; settings: mouse
Experimental: B16F10 mouse melanoma cells obtained from American Type Culture Collection (Manassas, VA, USA) were maintained in 10% FBS in high-glucose DMEM containing 100 U/mL penicillin and 100 μg/mL streptomycin at 37 °C in a humidified atmosphere with 5% CO2. Cytotoxicity was evaluated using a 3-(4,5-dimethylthiazol-2-yl)-2,5-diphenyltetrazolium bromide (MTT) assay. After 95% of confluence, B16F10 cells were seeded in a 96-well plate at 10,000 cells/well and incubated for 24 h in DMEM supplemented with 10% FBS. The cells were then fed fresh serum-free DMEM containing different concentrations (25 to 100 μM) of the test compounds and incubated for 48 h. After that, the cells were incubated with 100 μL of MTT at a concentration of […] in phosphate-buffered saline (PBS) for 2 h. Absorbance was measured at 490 nm by a microplate reader (Promega Corporation Instrument, USA) after 2 h of incubation. The viability of cells at 48 h upon co-treatment with α-MSH was evaluated by treating cells with 5 μM α-MSH 1 h after the treatment with test compounds.

[6] = molecular target: T2, mushroom tyrosinase; test: Kinetic study against mushroom tyrosinase (Lineweaver-Burk and secondary plots); type: biochemical
Experimental: The inhibition type was determined using a Lineweaver–Burk plot. The apparent slope (Kmapp/Vmaxapp) and intercept (1/Vmaxapp) versus different inhibitor concentrations was used to determine the inhibition constant (Ki). Different kinetic parameters were obtained for different concentrations of the substrate (0.5, 0.75, and 1 mM) and inhibitors (compound 1—0.0, 4.0, 6.6, and 9.3 µM; compound 3—0, 2.5, 2.6, and 2.7 µM). Sigmaplot version 12.0 (SPSS Inc., Chicago, IL, USA) was employed to generate the plots.

[7] = IC50 L-Tyrosine, substrate L-tyrosine

T2 sequence (C7FF04 1-392): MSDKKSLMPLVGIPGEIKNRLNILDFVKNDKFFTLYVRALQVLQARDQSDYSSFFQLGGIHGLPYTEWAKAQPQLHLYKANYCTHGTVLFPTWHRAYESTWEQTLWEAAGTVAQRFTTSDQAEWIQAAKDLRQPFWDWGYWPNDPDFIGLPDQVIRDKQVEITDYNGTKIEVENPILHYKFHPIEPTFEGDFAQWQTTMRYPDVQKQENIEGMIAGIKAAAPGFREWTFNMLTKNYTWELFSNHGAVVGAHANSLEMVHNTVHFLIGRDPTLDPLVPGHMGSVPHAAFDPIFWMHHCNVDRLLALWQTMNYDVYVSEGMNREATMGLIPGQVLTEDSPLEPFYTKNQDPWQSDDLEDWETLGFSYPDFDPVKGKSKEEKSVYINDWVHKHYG

intracellular tyrosinase level ([1]; 500 µM)	Structure (SMILES)	tyrosinase protein expression ([2]; arbutin pre-treatment (positive control))	melanin content ([3]; 500 µM, 5 µM α-MSH 48 h)	IC50 ([4]; IC50 L-DOPA, substrate L-DOPA)	IC50 [4, 7]	effect on intracellular tyrosinase activity [1]	tyrosinase protein expression ([2]; 6.25, 12.5 and 25 μM, 48 h)	viability at 48 h, 100 µM ([5]; 100 µM, 48 h, MTT, read-out: viable cells)	effect on melanin content ([3]; 5 µM α-MSH 48 h)	intracellular tyrosinase level ([1]; 25 µM)	Ki [6]	Inhibition Type ([6]; substrate L-tyrosine, from Lineweaver-Burk plots)	viability at 48 h, 100 µM [5]	melanin content ([3]; 25 µM, pretreated 1 h then 5 µM α-MSH 48 h)
130.75%	OC[C@H]1O[C@@H](Oc2ccc(O)cc2)[C@H](O)[C@@H](O)[C@@H]1O [Arbutin, reference compound]	significantly reduced the expression levels	124.06%	–	–	–	–	–	–	–	–	–	–	–
–	COCc1c(Br)c(O)c(O)c(Br)c1Br [Compound 2, 2,3,6-tribromo-4,5-dihydroxybenzyl methyl ether]	–	–	> 300 µM	113.9 ± 0.75 µM	did not show a significant reduction	did not reduce expression	~100%	no significant reduction	–	–	–	–	–
–	Oc1c(O)c(Br)c(COCc2c(Br)c(O)c(O)c(Br)c2Br)c(Br)c1Br [Compound 3, bis-(2,3,6-tribromo-4,5-dihydroxybenzylmethyl ether)]	–	–	111 ± 4.95 µM	2.92 ± 0.04 µM	decreased in a dose-dependent manner	inhibited α-MSH-induced accumulation of tyrosinase proteins in a concentration-dependent manner	–	reduced the melanin content in a dose-dependent manner	94.81%	1.98 µM	competitive-type inhibition	86.9%	98.68%
